For test [1], the target named is T1, HDAC7 (Homo sapiens, UniProt Q8WUI4).
T1 sequence (Q8WUI4 1-952): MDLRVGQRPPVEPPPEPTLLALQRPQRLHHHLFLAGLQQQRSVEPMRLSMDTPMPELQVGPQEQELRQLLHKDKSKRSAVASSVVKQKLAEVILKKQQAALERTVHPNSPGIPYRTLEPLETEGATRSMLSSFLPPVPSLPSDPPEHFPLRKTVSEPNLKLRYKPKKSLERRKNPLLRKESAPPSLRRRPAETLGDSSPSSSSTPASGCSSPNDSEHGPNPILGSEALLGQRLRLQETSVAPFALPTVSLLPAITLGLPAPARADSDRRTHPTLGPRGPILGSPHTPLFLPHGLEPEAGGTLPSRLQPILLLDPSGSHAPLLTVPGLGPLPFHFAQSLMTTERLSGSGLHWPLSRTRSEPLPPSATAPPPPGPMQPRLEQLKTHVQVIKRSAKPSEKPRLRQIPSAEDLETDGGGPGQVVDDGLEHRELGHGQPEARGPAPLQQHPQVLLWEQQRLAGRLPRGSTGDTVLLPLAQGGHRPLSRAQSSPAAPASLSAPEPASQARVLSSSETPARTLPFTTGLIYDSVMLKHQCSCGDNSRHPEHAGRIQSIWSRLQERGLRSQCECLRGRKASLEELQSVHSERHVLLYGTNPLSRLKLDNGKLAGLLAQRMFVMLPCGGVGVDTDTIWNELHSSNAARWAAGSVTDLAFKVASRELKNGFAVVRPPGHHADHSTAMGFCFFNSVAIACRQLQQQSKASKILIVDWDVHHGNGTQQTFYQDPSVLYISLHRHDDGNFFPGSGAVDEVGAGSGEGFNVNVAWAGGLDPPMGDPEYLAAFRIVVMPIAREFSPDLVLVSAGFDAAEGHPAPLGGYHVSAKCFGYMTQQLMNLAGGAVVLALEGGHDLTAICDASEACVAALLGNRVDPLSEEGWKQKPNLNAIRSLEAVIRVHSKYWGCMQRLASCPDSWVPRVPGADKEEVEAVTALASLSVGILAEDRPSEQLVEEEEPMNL
Put plainly: HDAC biochemical activity measurement (fluorescent substrate deacetylation).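 On all read-outs here: fluorogenic deacetylation assay using acetyl-lysine substrate at 20 µM, enzyme and compound incubated 30 min at 37 °C, then developer added, fluorescence read at 360/460 nm.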 The conditions noted are these: for IC50 HDAC7: 37° C. 30 minutes.

Test [2] has as its system U937 (human leukemia cells). Put plainly: MTT cancer cell growth inhibition. It is filed as cell-based. The conditions noted are these: Homo sapiens, U-937, 72 h, MTT, 72 hours incubation, read-out: GI50 U93. In short, it runs like this:
(§1)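 Seed 1500 cells/well, incubate overnight. Add compound, 10^−5 to 10^−10 M final, n=3; culture 72 h, 37° C., 5% CO2. Add MTT, 4 h. Discard supernatant, dissolve in DMSO. Read 570 nm; calculate viability and GI50.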

Test [3] deals with Bel-7402 (human hepatoma cells). Put plainly: MTT cancer cell growth inhibition. It is filed as cell-based. The note with it: Homo sapiens, Bel-7402, 72 h, MTT, 72 hours incubation, Bel-7402 cells; read-out: GI50 Bel-7402. Put shortly:
as §1

In test [4] the test system is MOLT-4 (human acute lymphoblastic leukemia cells). As to the kind of experiment: MTT cancer cell growth inhibition. The format is cell-based. The note with it: Homo sapiens, MOLT-4, 72 h, MTT, 72 hours incubation, read-out: GI50 Mol. Put shortly:
as §1

Test [5] deals with K562 (human leukemia cells). As to the kind of experiment: MTT cancer cell growth inhibition. It is filed as cell-based. The note with it: Homo sapiens, K562, 72 h, MTT, 72 hours incubation, K562 cells; read-out: GI50 K562. Put shortly:
as §1

Test [6] deals with HCC827 (human non-small cell lung cancer cells). Put plainly: MTT cancer cell growth inhibition. The format is cell-based. The note with it: Homo sapiens, HCC827, 72 h, MTT, 72 hours incubation, HCC827 cells; read-out: GI50 HCC827. In short, it runs like this:
as §1

Test [7] concerns MCF-7 (human breast cancer cells). As to the kind of experiment: MTT cancer cell growth inhibition. It is filed as cell-based. The note with it: Homo sapiens, MCF7, 72 h, 72 hours incubation, read-out: GI50 MCF. Put shortly:
as §1

Test [8] concerns MDA-MB-231 (breast cancer cells). Put plainly: MTT cancer cell growth inhibition. It is filed as cell-based. The note with it: Homo sapiens, MDA-MB-231, 72 h, read-out: GI50 MDA-MB-231, MTT, 72 hours incubation, MDA-MB-231 cells. Put shortly: as §1
Test [9] relates to HT1080 (human fibrosarcoma cells). Put plainly: MTT cancer cell growth inhibition. The format is cell-based. The conditions noted are these: Homo sapiens, HT-1080, 72 h, MTT, 72 hours incubation, read-out: GI50 HT1. In short, it runs like this:
as §1

The test system of test [10] is H1975 (non-small cell lung adenocarcinoma). As to the kind of experiment: MTT cancer cell growth inhibition. It is filed as cell-based. The note with it: Homo sapiens, NCI-H1975, 72 h, MTT, 72 hours incubation, H1975 cells; read-out: GI50 H1975. Put shortly:
as §1

Test [11] relates to PANC-1 (Pac-1, human pancreatic cancer cells). Put plainly: MTT cancer cell growth inhibition. The format is cell-based. The conditions noted are these: Homo sapiens, PANC-1, 72 h, MTT, 72 hours incubation, read-out: GI50 PAN. In short, it runs like this:
as §1

The test system of test [12] is N-87 (human gastric cancer cells). Put plainly: MTT cancer cell growth inhibition. The note with it: Homo sapiens, 72 h, MTT, 72 hours incubation, N-87 cells; read-out: GI50 N-87. The format is cell-based. Put shortly: as §1
Test [13] has as its system DU145 (human prostate cancer cells). Put plainly: MTT cancer cell growth inhibition. The format is cell-based. The conditions noted are these: Homo sapiens, DU-145, 72 h, MTT, 72 hours incubation, read-out: GI50 Du1. In short, it runs like this: as §1
Test [14] relates to Huh-7 (human hepatoma cells). Put plainly: MTT cancer cell growth inhibition. The format is cell-based. The conditions noted are these: Homo sapiens, Huh-7, 72 h, MTT, 72 hours incubation, Huh-7 cells; read-out: GI50 Huh-7. Put shortly:
as §1

Test [15] has as its system BGC-823 (human gastric cancer cells). As to the kind of experiment: MTT cancer cell growth inhibition. The format is cell-based. The conditions noted are these: Homo sapiens, BGC-823, 72 h, MTT, 72 hours incubation, read-out: GI50 BG. Put shortly: as §1
The test system of test [16] is SGC-7901 (human gastric cancer cells). Put plainly: MTT cancer cell growth inhibition. It is filed as cell-based. The note with it: Homo sapiens, SGC-7901, 72 h, MTT, 72 hours incubation, SGC-7901 cells; read-out: GI50 SGC-7901. Put shortly: as §1
Test [17] relates to KBM5-T315I (human chronic myelogenous leukemia). Put plainly: MTT cancer cell growth inhibition. It is filed as cell-based. The note with it: Homo sapiens, 72 h, MTT, 72 hours incubation, KBM5-T315I cells; read-out: GI50 KBM5-T315I. Put shortly: as §1
Test [18] deals with KBM-5 (human chronic myelogenous leukemia). As to the kind of experiment: MTT cancer cell growth inhibition. It is filed as cell-based. The conditions noted are these: Homo sapiens, KBM5, 72 h, MTT, 72 hours incubation, KBM-5 cells; read-out: GI50 KBM-5. Put shortly: as §1
Test [19] concerns lncap (prostate cancer cells). Put plainly: MTT cancer cell growth inhibition. It is filed as cell-based. The conditions noted are these: Homo sapiens, LNCaP, 72 h, MTT, 72 hours incubation, read-out: GI50 lnca. In short, it runs like this: as §1
The test system of test [20] is A549 (human lung cancer cells). As to the kind of experiment: MTT cancer cell growth inhibition. The format is cell-based. The note with it: Homo sapiens, A549, 72 h, MTT, 72 hours incubation, read-out: GI50 A54. In short, it runs like this: as §1
Test [21] relates to Hela (human cervical cancer cells). As to the kind of experiment: MTT cancer cell growth inhibition. The format is cell-based. The note with it: Homo sapiens, HeLa, 72 h, MTT, 72 hours incubation, read-out: GI50 Hela. In short, it runs like this:
as §1

Results on four compounds are retold here after US10065990B2, “Cyclic peptide compound, and preparation method, pharmaceutical composition and use thereof” (HANGZHOU GUANYU BIO-MEDICAL CO., LTD, priority 2013, dated 2018).

Molecules are shown by their SMILES. Where two headings read alike, the source gives them in different places.

Usually GI50 stands for the concentration at which growth is held to half of that of the control. As to `C/C=C1\NC(=O)c2nc(ccc2SCC)CNC(=O)C[C@@H](/C=C/CCSC(=O)CCCCC)OC(=O)[C@H](C(C)C)NC1=O` [Compound 253], the “IC50 (μM) HDAC7” value in test [1] is recorded as “no activity”. The GI50 stood at 30 nM in [2] (U937 cells); 87 nM in test [3]; 80 nM in test [4] (MOLT-4 cells); 11 nM in [5]; 37 nM in test [6]; 60 nM in test [7] (MCF-7 cells). The GI50 worked out at 69 nM in test [8]; 50 nM in test [9] (HT1080 cells); 57 nM in test [10]; 60 nM in test [11] (PANC-1 cells); 35 nM in test [12]; 20 nM in test [13] (DU145 cells). Besides, the GI50 was found to be 72 nM in test [14]; 50 nM in test [15] (BGC-823 cells); 18 nM in test [16]; 78 nM in test [17]; 16 nM in test [18]; 20 nM in test [19] (lncap cells). Besides, the values for the 50% growth inhibitory concentration (GI50) in test [20] (A549 cells) and in test [21] (Hela cells) were 30 nM and 50 nM, respectively.

Take `C=C1NC(=O)c2cc(SC)cc(n2)CNC(=O)C[C@@H](/C=C/CCSC(C)=O)OC(=O)[C@H](C)NC1=O` [Compound 211]: in test [1], the “IC50 HDAC7” value is listed as “no activity”. The concentration for 50% growth inhibition (GI50) in test [2] (U937 cells) worked out at 40 nM; in [3], 21 nM; in test [4] (MOLT-4 cells), 30 nM; in [5], 19 nM; in test [6], 55 nM; in test [7] (MCF-7 cells), 70 nM. Moreover, the concentration for 50% growth inhibition (GI50) in test [8] amounted to 85 nM; in test [9] (HT1080 cells), 40 nM; in test [10] it was 73 nM; in test [11] (PANC-1 cells), 70 nM; in test [12] it was 31 nM; in test [13] (DU145 cells), 60 nM. Besides, the GI50 was determined as 24 nM in test [14]; 70 nM in test [15] (BGC-823 cells); 71 nM in test [16]; 28 nM in [17]; 31 nM in test [18]; 30 nM in [19] (lncap cells). The 50% growth inhibitory concentration (GI50) in [20] (A549 cells) amounted to 40 nM; in test [21] (Hela cells), 60 nM.

Take `C/C=C1\NC(=O)c2cccc(n2)CNC(=O)C[C@@H](/C=C/CCS)OC(=O)[C@H](CC)NC1=O` [Example 28]: in test [1], the “IC50 HDAC7” value is recorded as “no activity”. Also, the 50% growth inhibitory concentration (GI50) in test [2] amounted to 2110 nM; in [3], 92 nM; in test [4] it was 80 nM; in [5], 35 nM; in test [6], 37 nM; in [7] it was 930 nM. Also, the 50% growth inhibitory concentration (GI50) turned out to be 86 nM in [8]; 40 nM in test [9]; 35 nM in [10]; 20 nM in test [11]; 42 nM in test [12]; 430 nM in test [13]. Besides, the GI50 in test [14] is 73 nM; in test [15], 1100 nM; in test [16] it was 34 nM; in [17], 51 nM; in test [18], 73 nM; in test [19], 390 nM. Besides, the GI50 in test [20] is 420 nM; in test [21], 810 nM.

Take `C/C=C1\NC(=O)c2nc(ccc2F)CNC(=O)C[C@@H](/C=C/CCS)OC(=O)[C@H](C(C)C)NC1=O` [Compound 106]: the “IC50 HDAC7” value in [1] was “no activity”. Besides, the GI50 in test [2] came to 20 nM; in [3], 66 nM; in test [4], 30 nM; in test [5], 27 nM; in test [6], 43 nM; in [7] it was 30 nM. Moreover, the GI50 stood at 19 nM in test [8]; 30 nM in test [9]; 68 nM in test [10]; 30 nM in test [11]; 12 nM in [12]; 30 nM in test [13]. Besides, the concentration for 50% growth inhibition (GI50) in test [14] came out at 31 nM; in [15], 20 nM; in [16], 35 nM; in [17], 76 nM; in test [18], 56 nM; in [19], 30 nM. Further, the 50% growth inhibitory concentration (GI50) in [20] turned out to be 60 nM; in test [21] it was 50 nM.
